The record followed here is ChEMBL document CHEMBL1201862, “PubChem BioAssay data set” (2004).

Active and inactive are the calls of the source.

The EC50 is the midpoint of the concentration-response curve. Broadly, the IC50 is the concentration that inhibits the measured activity by half. A lower IC50 goes with higher potency. What is called AC50 is the concentration at which the activity in the assay is half-maximal.

For assay [1], the target named is T1, Endoribonuclease toxin MazF (Escherichia coli K-12, UniProt P0AE70).
T1 sequence (P0AE70 whole entry): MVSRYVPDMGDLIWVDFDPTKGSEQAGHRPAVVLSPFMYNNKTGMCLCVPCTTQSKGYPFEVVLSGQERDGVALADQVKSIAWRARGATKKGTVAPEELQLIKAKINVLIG
As to the kind of experiment: fluorescent RNA oligo signal without MazF, dose response, counter-screen for MazEF activator project, biochemical, fluorescence, single-stranded RNase substrate (AID 588502). It counts as functional. (A counterscreen serves to expose hits that act by an unwanted route or on another target.)

The target in assay [2] is T1, Endoribonuclease toxin MazF. As to the kind of experiment: MazF toxin RNase activators, dose response, biochemical, fluorescence, single-stranded RNA substrate, uHTS hits (AID 588481). In kind it is functional.
Assay [3] deals with T2, Estrogen receptor (Homo sapiens, UniProt P03372).
T2 sequence (P03372 whole entry): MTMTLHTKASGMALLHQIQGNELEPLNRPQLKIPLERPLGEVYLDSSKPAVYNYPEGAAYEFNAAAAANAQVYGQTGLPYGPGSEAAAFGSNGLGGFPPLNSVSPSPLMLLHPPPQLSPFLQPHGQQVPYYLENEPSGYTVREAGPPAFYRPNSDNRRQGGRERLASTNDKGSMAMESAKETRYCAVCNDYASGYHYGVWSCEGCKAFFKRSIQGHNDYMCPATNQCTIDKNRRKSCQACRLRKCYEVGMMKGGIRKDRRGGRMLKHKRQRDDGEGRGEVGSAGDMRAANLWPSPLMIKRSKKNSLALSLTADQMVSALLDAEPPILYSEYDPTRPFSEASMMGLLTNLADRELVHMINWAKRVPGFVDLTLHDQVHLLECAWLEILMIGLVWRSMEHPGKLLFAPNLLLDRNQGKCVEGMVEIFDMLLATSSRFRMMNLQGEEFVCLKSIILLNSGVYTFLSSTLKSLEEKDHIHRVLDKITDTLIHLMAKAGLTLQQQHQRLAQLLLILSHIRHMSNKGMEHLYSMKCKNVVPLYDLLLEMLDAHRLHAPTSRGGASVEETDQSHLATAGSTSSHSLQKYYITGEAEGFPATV
The assay can be described thus: potentiators of ERα–SRC-1 coactivator binding, dose response, biochemical, TR-FRET, ERα LBD (AID 737). For orientation: TR-FRET usually uses a lanthanide donor and a delayed reading to cut background.

Assay [4] in a line: inhibitors of Trypanosoma cruzi host-cell infection, confirmation, beta-gal luminescence, NIH3T3 host cells (AID 2630). In kind it is functional, cell-based. Particulars: Mus musculus.
The target of assay [5] is Peroxisome proliferator-activated receptor gamma/Nuclear receptor coactivator 1 (Homo sapiens, UniProt P37231). The assay can be described thus: TR-FRET dose response biochemical High Throughput Screening assay for agonists of the steroid receptor coactivator 1 (SRC-1) recruitment by the peroxisome proliferator-activated receptor gamma (PPAR gamma): non-selective agonists. [Related pubchem assays (depositor defined):AID1300, AID1808, AID504735, AID631]. In kind it is protein assay.
Chain of Peroxisome proliferator-activated receptor gamma/Nuclear receptor coactivator 1 (P37231 whole entry): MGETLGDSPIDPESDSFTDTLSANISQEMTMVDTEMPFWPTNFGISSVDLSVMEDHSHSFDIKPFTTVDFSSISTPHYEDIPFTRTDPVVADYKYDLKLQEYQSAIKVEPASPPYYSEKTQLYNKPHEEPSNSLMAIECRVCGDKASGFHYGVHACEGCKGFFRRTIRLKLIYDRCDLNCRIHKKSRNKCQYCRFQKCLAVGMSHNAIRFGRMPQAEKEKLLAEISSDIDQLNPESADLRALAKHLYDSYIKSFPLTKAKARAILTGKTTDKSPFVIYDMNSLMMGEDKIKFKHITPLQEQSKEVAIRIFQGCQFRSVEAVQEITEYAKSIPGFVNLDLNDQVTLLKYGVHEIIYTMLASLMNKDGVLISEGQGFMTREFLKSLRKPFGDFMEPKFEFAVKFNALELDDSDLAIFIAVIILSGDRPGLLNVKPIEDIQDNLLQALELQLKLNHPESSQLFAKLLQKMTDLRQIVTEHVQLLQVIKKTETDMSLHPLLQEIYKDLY
Chain of Peroxisome proliferator-activated receptor gamma/Nuclear receptor coactivator 1 (Q15788 whole entry, further chain): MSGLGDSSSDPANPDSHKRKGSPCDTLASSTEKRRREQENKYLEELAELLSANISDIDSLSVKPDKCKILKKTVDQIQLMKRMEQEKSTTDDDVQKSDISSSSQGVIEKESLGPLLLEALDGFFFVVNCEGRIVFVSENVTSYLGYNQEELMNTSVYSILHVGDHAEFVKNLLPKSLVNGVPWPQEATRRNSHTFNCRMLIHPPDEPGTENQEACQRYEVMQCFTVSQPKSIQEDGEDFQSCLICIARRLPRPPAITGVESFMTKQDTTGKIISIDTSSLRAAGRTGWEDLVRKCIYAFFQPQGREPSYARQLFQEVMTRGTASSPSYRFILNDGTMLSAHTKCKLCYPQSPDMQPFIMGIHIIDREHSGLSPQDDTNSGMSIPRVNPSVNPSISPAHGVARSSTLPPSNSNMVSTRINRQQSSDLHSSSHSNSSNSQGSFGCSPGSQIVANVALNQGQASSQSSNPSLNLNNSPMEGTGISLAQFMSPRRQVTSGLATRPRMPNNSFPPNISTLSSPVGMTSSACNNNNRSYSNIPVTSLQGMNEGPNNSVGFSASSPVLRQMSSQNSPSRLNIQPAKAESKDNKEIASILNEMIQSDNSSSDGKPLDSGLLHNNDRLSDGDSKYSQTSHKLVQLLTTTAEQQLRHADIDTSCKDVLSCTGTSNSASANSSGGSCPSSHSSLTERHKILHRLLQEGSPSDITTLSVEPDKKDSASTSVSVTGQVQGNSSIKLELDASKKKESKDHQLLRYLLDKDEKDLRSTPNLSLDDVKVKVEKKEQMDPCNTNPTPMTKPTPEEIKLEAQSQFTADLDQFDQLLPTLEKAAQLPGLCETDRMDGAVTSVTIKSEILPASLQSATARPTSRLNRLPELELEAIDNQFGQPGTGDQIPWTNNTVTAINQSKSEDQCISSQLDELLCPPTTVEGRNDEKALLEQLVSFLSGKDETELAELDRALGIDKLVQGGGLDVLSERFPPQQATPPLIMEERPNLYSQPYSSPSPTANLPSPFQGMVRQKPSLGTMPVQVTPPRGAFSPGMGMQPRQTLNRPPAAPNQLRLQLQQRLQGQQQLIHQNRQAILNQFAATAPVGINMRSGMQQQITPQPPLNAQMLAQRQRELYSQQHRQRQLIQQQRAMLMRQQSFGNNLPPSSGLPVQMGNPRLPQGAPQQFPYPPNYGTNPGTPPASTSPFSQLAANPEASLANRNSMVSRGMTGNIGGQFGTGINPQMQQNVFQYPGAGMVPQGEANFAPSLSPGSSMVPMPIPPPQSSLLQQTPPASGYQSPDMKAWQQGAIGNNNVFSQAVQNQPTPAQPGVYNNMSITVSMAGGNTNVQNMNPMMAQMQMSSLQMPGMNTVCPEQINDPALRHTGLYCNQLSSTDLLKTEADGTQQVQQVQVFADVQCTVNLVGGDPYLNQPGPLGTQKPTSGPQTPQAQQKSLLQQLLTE

In assay [6] the target is Peroxisome proliferator-activated receptor gamma/Nuclear receptor coactivator 2 (Homo sapiens, UniProt P37231). As to the kind of experiment: TR-FRET dose response biochemical High Throughput Screening assay for agonists of the steroid receptor coactivator 2 (SRC-2) recruitment by the peroxisome proliferator-activated receptor gamma (PPAR gamma): non-selective agonists. [Related pubchem assays: 1297, 1032 ]. In kind it is functional.

A short description of assay [7]: Luminescence Cell-Based Secondary HTS screen to identify cytotoxic compounds of NIH3T3 cells. [Related pubchem assays: 1885, 1968 ]. It counts as functional.
Assay [8] in a line: inhibitors of intracellular T. cruzi replication, confirmation, NIH3T3 host cells, beta-gal luminescence (AID 2044).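 Note: intracellular parasites grown in NIH/3T3 mouse fibroblasts as host cells; luminescent beta-galactosidase reporter signal from transgenic T. cruzi replicating inside host cells; inhibitors lower the luminescence signal.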 It counts as functional, cell-based.
Assay [9] in a line: cytotoxicity toward NIH3T3 fibroblasts, dose response, counter-screen, cell-based, ATP luminescence, mouse fibroblasts (AID 2010).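 Note: cells exposed to compound for about 90 hours before reading.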 In kind it is functional.
The nature of assay [10]: Luminescence Cell-Based/Microorganism Confirmation at Dose of Inhibitors of Trypanosoma cruzi Infection. [Related pubchem assays: 1885, 1968 ]. It counts as functional.
Assay [11] deals with Peroxisome proliferator-activated receptor gamma/Nuclear receptor coactivator 3 (Homo sapiens, UniProt P37231). The assay can be described thus: TR-FRET dose response biochemical High Throughput Screening assay for agonists of the steroid receptor coactivator 3 (SRC-3) recruitment by the peroxisome proliferator-activated receptor gamma (PPAR gamma): non-selective agonists. [Related pubchem assays: 1301 (Confirmation screen.), 1048 (Primary screen.)]. It counts as functional.

The target in assay [12] is Neuropeptide Y receptor type 1 (Homo sapiens, UniProt P25929). The assay can be described thus: NPY-Y1 receptor antagonist potency, dose response, cell-based (AID 1277). In kind it is functional.
Chain of Neuropeptide Y receptor type 1 (P25929 whole entry): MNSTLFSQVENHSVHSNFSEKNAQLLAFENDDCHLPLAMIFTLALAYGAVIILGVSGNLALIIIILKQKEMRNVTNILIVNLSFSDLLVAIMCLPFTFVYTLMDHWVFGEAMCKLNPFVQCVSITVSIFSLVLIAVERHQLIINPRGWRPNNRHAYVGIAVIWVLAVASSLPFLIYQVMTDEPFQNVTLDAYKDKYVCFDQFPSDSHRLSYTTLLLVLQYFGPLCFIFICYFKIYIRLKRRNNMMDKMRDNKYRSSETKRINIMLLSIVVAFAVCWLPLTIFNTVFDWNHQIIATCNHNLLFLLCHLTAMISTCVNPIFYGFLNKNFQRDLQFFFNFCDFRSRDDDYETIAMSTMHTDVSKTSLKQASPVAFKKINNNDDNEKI
Assay [13] addresses Neuropeptide Y receptor type 2 (Homo sapiens, UniProt P49146). The assay can be described thus: NPY-Y2 antagonist potency, selectivity check, dose response, counter-screen for NPY-Y1 antagonist project, cell-based (AID 1278). It counts as functional.
Assay [14] in a line: MC4R antagonists, dose response, counter-screen for LGR2 antagonist project, cell-based, plate reader, cherry pick (AID 743444).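 Note: transfected HEK 293 cells stimulated with alpha-MSH peptide; potency of inhibitors of the alpha-MSH evoked signal.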 In kind it is functional.
A short description of assay [15]: Luminescence Cell-Based Dose Response HTS to Identify Inhibitors of 5'UTR Stem-Loop Driven Prion Protein mRNA Translation in H4 Neuroglioblastoma Cells. [Related pubchem assays: 1827 (Project Summary), 1813 (Primary HTS)]. It counts as functional.
Assay [16] concerns the target T3, Heat shock factor protein 1 (Mus musculus, UniProt P38532).
T3 sequence (P38532 whole entry): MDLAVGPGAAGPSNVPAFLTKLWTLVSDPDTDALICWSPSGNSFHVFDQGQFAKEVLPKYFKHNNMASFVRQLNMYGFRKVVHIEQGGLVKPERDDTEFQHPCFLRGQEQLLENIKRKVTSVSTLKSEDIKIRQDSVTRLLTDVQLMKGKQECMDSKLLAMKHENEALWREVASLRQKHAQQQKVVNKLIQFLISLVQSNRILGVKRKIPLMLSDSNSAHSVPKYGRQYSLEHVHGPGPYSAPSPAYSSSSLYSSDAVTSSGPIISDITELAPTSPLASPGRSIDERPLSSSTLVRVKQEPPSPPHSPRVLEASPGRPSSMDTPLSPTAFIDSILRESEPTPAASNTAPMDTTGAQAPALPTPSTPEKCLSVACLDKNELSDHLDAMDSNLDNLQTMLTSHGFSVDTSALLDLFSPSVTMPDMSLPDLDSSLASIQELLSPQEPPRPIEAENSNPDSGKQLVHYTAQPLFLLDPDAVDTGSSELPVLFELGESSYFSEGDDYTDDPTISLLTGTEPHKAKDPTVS
As to the kind of experiment: inhibition of MG132-induced HSE-luciferase signal, confirmation, cell-based, NIH3T3, luminescence, dose retest (AID 2382).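 Note: NIH3T3 fibroblasts with HSF1-driven luciferase reporter stressed by proteasome inhibitor MG132; luminescence from HSF1-driven luciferase expression after 8 hours of MG132 stress.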 In kind it is functional.

The nature of assay [17]: cytotoxicity toward DRD oncogenic fibroblasts, dose response, cell-based, non-viral oncogenic, luminescence (AID 1934). In kind it is functional. Particulars: Homo sapiens.
Assay [18] is described as follows: Luminescence-based counterscreen assay for KLF5 inhibitors: dose response cell-based high throughput screening assay to identify cytotoxic compounds using the IEC-6 intestinal epithelial cell line. [Related pubchem assays: 1700 (Primary screen.), 1834 (Confirmation screen.), 1858 (Summary AID.), 1905 (Counterscreen.)]. It counts as functional.
A short description of assay [19]: HepG2 cell cytotoxicity, dose response, cytotoxicity control, plate reader, cherry-pick, antagonist series (AID 743416). In kind it is functional, cell-based.
Assay [20] deals with BJ. As to the kind of experiment: cytotoxicity toward BJ-TERT-LT-ST fibroblasts, dose response, cell-based, RAS-independent, luminescence (AID 1935).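 Note: BJ fibroblasts immortalized with TERT plus LT and ST oncogenes.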 It counts as functional. Particulars: Homo sapiens.
Assay [21] relates to HEK293. The assay can be described thus: inhibitors of LMP1-driven NF-kB reporter, dose response, cell-based, HEK293, luciferase, cherry-pick (AID 588343). In kind it is functional. Particulars: Homo sapiens.
Assay [22] in a line: LGR2 antagonists, dose response, cell-based, HEK293, CRE-luciferase reporter, cherry pick, set 2 (AID 743343).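 Note: transfected cells were stimulated with diluted bursicon conditioned medium after compound addition.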 It counts as functional. (Reporter assays use an easily measured gene product as a stand-in for the process of interest.)
In assay [23] the test system is BJ. As to the kind of experiment: cytotoxicity toward Ras-transformed BJeLR fibroblasts, dose response, cell-based, alamar blue fluorescence, cherrypicked samples (AID 2631).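 Note: confirmatory dose-response assay in RAS-dependent BJ fibroblasts engineered with TERT, LT and ST, with cytotoxicity read by fluorescence.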 It counts as functional. To be noted: Homo sapiens.
Assay [24] concerns BJ. As to the kind of experiment: cells. In kind it is functional, cell-based. Particulars: Homo sapiens.
Assay [25] in a line: Luminescence Cell-Based Dose Confirmation HTS to Identify Inhibitors of Platelet Dense Granule Release. [Related pubchem assays: 1663 (Primary HTS), 1678 (Summary of Project)]. It counts as functional.
The subject of assay [26] is BJ. As to the kind of experiment: cytotoxicity toward BJ-TERT fibroblasts, dose response, cell-based, RAS-independent, luminescence (AID 1933). In kind it is functional. Particulars: Homo sapiens.
For assay [27], the target named is T4, Oxysterols receptor LXR-beta (Homo sapiens, UniProt P55055).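 Note: agonist activity at LXR measured by a cell-based luminescence readout across a dose range, run as a counterscreen for daf-12 agonists; HEK293 cells with Gal4-LXR fusion and GAL4-driven luciferase reporter; potency for activation of Gal4-LXR reporter so compounds are agonists.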
T4 sequence (P55055 whole entry): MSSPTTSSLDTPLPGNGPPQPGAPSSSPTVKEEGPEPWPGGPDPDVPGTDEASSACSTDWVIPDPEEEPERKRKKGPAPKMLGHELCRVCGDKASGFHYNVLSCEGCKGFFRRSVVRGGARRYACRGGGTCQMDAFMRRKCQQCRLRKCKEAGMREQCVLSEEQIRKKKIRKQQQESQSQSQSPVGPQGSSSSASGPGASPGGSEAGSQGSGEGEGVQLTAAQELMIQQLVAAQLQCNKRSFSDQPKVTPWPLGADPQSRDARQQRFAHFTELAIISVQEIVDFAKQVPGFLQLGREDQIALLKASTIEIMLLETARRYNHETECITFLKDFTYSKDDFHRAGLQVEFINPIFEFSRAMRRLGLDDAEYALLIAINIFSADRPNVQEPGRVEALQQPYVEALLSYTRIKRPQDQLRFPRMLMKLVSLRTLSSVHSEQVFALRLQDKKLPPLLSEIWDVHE
In kind it is functional, cell-based.

Assay [28] addresses Luciferin 4-monooxygenase (Photinus pyralis, UniProt P08659). The assay can be described thus: firefly luciferase enzyme inhibitors, dose response, biochemical, luminescence (AID 1891).
Assay [29] can be described thus: inhibitors of SNCA 5'UTR-driven reporter translation, confirmation, H4 neuroglioma cells, luminescence (AID 1988). It counts as functional, cell-based.
A short description of assay [30]: A549 cell cytotoxicity, dose response, cytotoxicity control, plate reader, cherry-pick, antagonist series (AID 743412). In kind it is functional, cell-based.

Chain of Luciferin 4-monooxygenase (P08659 whole entry): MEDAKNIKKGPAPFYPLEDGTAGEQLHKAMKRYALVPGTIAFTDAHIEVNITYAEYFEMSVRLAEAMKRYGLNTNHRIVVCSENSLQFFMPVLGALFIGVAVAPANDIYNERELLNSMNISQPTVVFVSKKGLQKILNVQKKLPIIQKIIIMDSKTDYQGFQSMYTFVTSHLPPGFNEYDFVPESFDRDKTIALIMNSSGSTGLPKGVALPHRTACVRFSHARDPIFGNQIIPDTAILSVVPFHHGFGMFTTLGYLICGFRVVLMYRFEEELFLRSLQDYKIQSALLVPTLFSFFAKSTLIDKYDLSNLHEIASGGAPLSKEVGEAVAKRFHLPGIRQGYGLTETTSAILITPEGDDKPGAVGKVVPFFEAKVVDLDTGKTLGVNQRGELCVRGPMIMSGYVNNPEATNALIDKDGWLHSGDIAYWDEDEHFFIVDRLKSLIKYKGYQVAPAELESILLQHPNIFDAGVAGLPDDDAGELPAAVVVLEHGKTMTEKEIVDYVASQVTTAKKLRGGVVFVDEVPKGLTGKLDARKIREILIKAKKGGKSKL
Chain of Neuropeptide Y receptor type 2 (P49146 whole entry): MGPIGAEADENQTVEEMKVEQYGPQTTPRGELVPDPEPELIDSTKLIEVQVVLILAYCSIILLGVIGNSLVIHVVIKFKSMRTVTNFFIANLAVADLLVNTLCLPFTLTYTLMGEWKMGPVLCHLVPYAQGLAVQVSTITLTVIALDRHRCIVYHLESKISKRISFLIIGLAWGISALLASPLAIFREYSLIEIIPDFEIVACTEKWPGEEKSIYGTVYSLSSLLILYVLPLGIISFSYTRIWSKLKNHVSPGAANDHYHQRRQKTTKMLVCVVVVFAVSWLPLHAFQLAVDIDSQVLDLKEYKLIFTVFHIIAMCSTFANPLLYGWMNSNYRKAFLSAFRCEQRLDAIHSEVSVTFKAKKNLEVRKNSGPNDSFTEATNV

In the case of `CCc1ccc2nc(SCC(=O)N3CC(=O)Nc4ccccc43)c(C#N)cc2c1`, the values for the EC50 in assay [1], in assay [2] and in assay [3] were > 99 µM (inactive), > 99 µM (inactive) and 32.9 µM (not active), respectively.
For the molecule `COc1cc(C(=O)NCCC(C)C)ccc1OCc1ccc(Cl)cc1Cl`, the EC50 is 4.43 µM (active) in [4]; > 79.4 µM (inactive) in [5]; > 79.4 µM (not active) in assay [6]; > 195 µM (not active) in [7]; 1.34 µM (active) in assay [8]; > 30 µM (not active) in assay [9]. The concentration for a half-maximal effect (EC50) in assay [10] is 4.43 µM (inconclusive); in [11], > 79.4 µM (not active).
Turning to `CC(C)(C)NC(=O)c1oc2ccccc2c1COc1ccccc1`, the 50% inhibitory concentration (IC50) was 18.9 µM (not active) in [12] and > 35 µM (not active) in [13].
`CCNC(S)=NNC(=O)c1cc(-c2ccc(OCC)cc2)nc2ccccc12`: the AC50 in assay [14] is 4.32 µM (active); in [19] it was 49.6 µM (active); in [21], 1.7 µM (active); in [22] it was 3.19 µM (active); in assay [30] it was > 52 µM (inactive). Further, the EC50 in assay [15] is 16.1 µM (active); in assay [16], 19 µM (active); in [17] it was 11.7 µM (active); in assay [20], > 150 µM (not active); in [23], > 133 µM (inactive); in assay [24], 3.3 µM (active). Besides, the EC50 is 1.08 µM (active) in [25]; 8.23 µM (inconclusive) in [26]; > 67.5 µM (inactive) in assay [27]; < 88 nM (active) in assay [28]; 10.4 µM (active) in [29]. Moreover, in assay [18], the 50% inhibitory concentration (IC50) was > 39.8 µM (not active).
